Reference: patent publication US20160304861A1, “SPATIAL MULTIPLEXING FOR MULTISIGNAL CELLULAR IMAGING” (Massachusetts Institute of Technology, priority 2015, published 2016)

System: Gcamp6f sensor cluster in HEK293 cells
Assay: Gcamp6f sensor cluster response to ionomycin treatment in HEK293 cells
Assay type: cell-based
Conditions: 20 mM ionomycin in DMSO added at around 2 minutes, FIG. 1C
Protocol: HEK cells were transfected with the TransIT®-293 transfection reagent (Minis). Cells were plated in a 24-well plate, transfected with 50 ng plasmids per well after 18-24 hours plating, and imaged 24 hours after transfection. Mouse neurons were transfected with the calcium phosphate transfection kit (Invitrogen). Neurons were plated in a 24-well plate, transfected 96 hours after plating with 1500 ng plasmids per well and were imaged at least 48 hours after transfection. For co-transfection in neurons, two plasmids were mixed as 1:1 ratio, maintaining a total of 1500 ng plasmids per well. For HEK experiments, NucBlue Life cell stain and ReadyProbes reagent (Life Technologies) were added to stain the nucleus. Mfn1-null MEF cells (ATCC® CRL-2992™) were plated in a 24-well glass-bottom plate with 50-70% cell confluency. Plasmids were then transfected with a mixture of 200 ng plasmid and […] Trans-IT X2 (Mirus) per well. Transfected cells were incubated at 37° C. for 48-72 hours to establish the expression.
An inverted epi-fluorescence Nikon Ti Eclipse equipped with SPECTRA X light engine (LumenCor), Zyla5.5 camera (Andor), 100× 1.45 NA oil objective lens (Nikon), 20× 0.75 NA objective lens (Nikon), and standard CFP-YFP FRET filter sets (Semrock) were used to image the fluorescent patterns. FRET imaging typically lasts for 10 min. […]

C[C@H](CCC(=O)O)C[C@H](C)C[C@H](C)C(=O)/C=C(\O)[C@H](C)C[C@H](C)C/C=C/[C@@H](C)[C@@H](O)[C@@H](C)[C@@H](O)C[C@@H]1CC[C@@](C)([C@H]2CC[C@@](C)([C@@H](C)O)O2)O1 [ionomycin]
fluorescence by the Gcamp6f sensor cluster: incrase in fluorescence
